Source: US20260000629A1, “FERROPTOSIS INHIBITOR” (TOHOKU UNIVERSITY, priority 2020, published 2026)

How the values were obtained:
[1] = tested on: H9C2 cell line; experiment: Ferroptosis induction treatment, cell viability by WST-8 assay, H9C2 cell line; format: cell-based, rat; conditions: for cell viability level compared with ferroptosis inducer alone: with 50 nM RSL3, 2 μM elastin, 0.3 μM ML210, 0.3 μM ML162, 0.5 μM FIN56, 100 μM BSO or 5 μM FINO2, FIG. 2; for decrease in the cell viability level caused by ferroptosis inducer: with 100 μM BSO, 2 μM elastin, 50 nM RSL3 or 0.5 μM FIN56, FIG. 1
Source text: Three different cell lines (the H9C2 cell line, which is a rat cardiac myoblast cell line, the NR[…] cell line, which is a rat kidney fibroblast, and the C2C12 cell line, which is a mouse myoblast cell line) were obtained from the American Type Culture Collection (ATCC); the Panc-1 cell line, which is a human pancreatic cancer cell line, was obtained the Cell Resource Center for Biomedical Research, Institute of Development, Aging and Cancer, Tohoku University/Cell Bank; and the HT22 cell line, which is a mouse hippocampus nerve cell line, was purchased from Merck Millipore Co. All the cell lines were subcultured in a Dulbecco's Modified Eagle Medium (DMEM) culture solution containing 100-fold diluted 1% penicillin-streptomycin (26253-84; manufactured by Nacalai Tesque, Inc.) (hereinafter simply referred to as “DMEM culture solution”) to which 10% fetal bovine serum (FBS) and 4.5 g glucose/L were added (hereinafter referred to as “DMEM [high glucose] culture solution”) under conditions of 5% CO2/20% O2 and 37° C. 4000 cells of five different cell lines (the H9C2 cell line, the Panc-1 cell line, the NR[…] cell line, the C2C12 cell line, and the HT22 cell line) were seeded on a 96-well plate and cultured overnight in a DMEM culture solution containing 1.0 g glucose/L (low glucose) and 1% FBS (hereinafter referred to as “DMEM [low glucose low serum] culture solution”). After the procedure of the above-mentioned, ferroptosis was induced in cells from the above-mentioned five different cell lines in the presence of each of […] of the present invention (vitamin K1, vitamin K2 [menaquinone-4], vitamin K3, or vitamin K3 hydroquinone) (see Table 1) or a known ferroptosis inhibitor (ferrostatin 1). Specifically, cells from the H9C2 cell line were cultured in the presence of each of six different test substances (10 μM vitamin K1 [manufactured by FUJIFILM Wako Pure Chemical Corporation], 10 μM menaquinone-4 [manufactured by Sigma-Aldrich], 3 μM or 1 μM menadione [manufactured by Sigma-Aldrich], 1 μM vitamin K3 hydroquinone [manufactured by Toronto Research Chemicals], or 0.3 μM ferrostatin 1 [manufactured by Cayman]) at various concentrations and each of eight different ferroptosis inducers (100 μM BSO [manufactured by Sigma-Aldrich], 1.5 μM or 2 μM elastin [manufactured by Cayman], 50 nM RSL3 [manufactured by Selleck Chemicals], 0.3 μM ML210 [manufactured by Cayman], 0.3 μM ML162 [manufactured by Cayman], 0.5 μM FIN56 [manufactured by Cayman], 5 μM FINO2 [manufactured by Cayman], or 4 mM glutamic acid [manufactured by Sigma-Aldrich]) for 60 hours for BSO treatment, for 48 hours for elastin treatment, RSL3 treatment, and FIN56 treatment, and for 24 hours for ML210 treatment, ML162 treatment, FINO2 treatment, and glutamic acid treatment. Cell viability levels were measured by WST-8 assay using Cell Count Reagent SF. The cell viability level was calculated as a relative value of the cell survival level when the cell viability level when cultured in the absence of a test substance and a ferroptosis inducer was set to 1.

[2] = tested on: HT22 cell line; experiment: Ferroptosis induction treatment (glutamic acid), cell viability by WST-8 assay, HT22 cell line; format: cell-based, mouse; conditions: with 4 mM glutamic acid, FIG. 4
Source text: (§1) Three different cell lines (the H9C2 cell line, which is a rat cardiac myoblast cell line, the NR[…] cell line, which is a rat kidney fibroblast, and the C2C12 cell line, which is a mouse myoblast cell line) were obtained from the American Type Culture Collection (ATCC); the Panc-1 cell line, which is a human pancreatic cancer cell line, was obtained the Cell Resource Center for Biomedical Research, Institute of Development, Aging and Cancer, Tohoku University/Cell Bank; and the HT22 cell line, which is a mouse hippocampus nerve cell line, was purchased from Merck Millipore Co. All the cell lines were subcultured in a Dulbecco's Modified Eagle Medium (DMEM) culture solution containing 100-fold diluted 1% penicillin-streptomycin (26253-84; manufactured by Nacalai Tesque, Inc.) (hereinafter simply referred to as “DMEM culture solution”) to which 10% fetal bovine serum (FBS) and 4.5 g glucose/L were added (hereinafter referred to as “DMEM [high glucose] culture solution”) under conditions of 5% CO2/20% O2 and 37° C. 4000 cells of five different cell lines (the H9C2 cell line, the Panc-1 cell line, the NR[…] cell line, the C2C12 cell line, and the HT22 cell line) were seeded on a 96-well plate and cultured overnight in a DMEM culture solution containing 1.0 g glucose/L (low glucose) and 1% FBS (hereinafter referred to as “DMEM [low glucose low serum] culture solution”). After the procedure of the above-mentioned, ferroptosis was induced in cells from the above-mentioned five different cell lines in the presence of each of five different vitamin K group compounds of the present invention (vitamin K1, vitamin K2 [menaquinone-4], vitamin K3, or vitamin K3 hydroquinone) (see Table 1) or a known ferroptosis inhibitor (ferrostatin 1). […] Cell viability levels were measured by WST-8 assay using Cell Count Reagent SF. The cell viability level was calculated as a relative value of the cell survival level when the cell viability level when cultured in the absence of a test substance and a ferroptosis inducer was set to 1.

[3] = tested on: Panc-1 cell line; experiment: Ferroptosis induction treatment, cell viability by WST-8 assay, Panc-1 cell line; format: cell-based, human; conditions: with 5 μM elastin, FIG. 3A
Source text: as §1

[4] = tested on: C2C12 cell line; experiment: Ferroptosis induction treatment, cell viability by WST-8 assay, C2C12 cell line; format: cell-based, mouse; conditions: with 500 μM BSO, FIG. 3C
Source text: as §1

[5] = tested on: NRK49F cell line; experiment: Ferroptosis induction treatment, cell viability by WST-8 assay, NRK49F cell line; format: cell-based, rat; conditions: with 500 μM BSO, FIG. 3B
Source text: as §1

[6] = tested on: lipid peroxy radicals (LOO·); experiment: Scavenging ability against lipid peroxy radicals, AA/LOX system using NBD-Pen fluorescence probe; format: biochemical; conditions: 100 μM test substance; AA and LOX, PBS pH 7.4, 37° C.; vs absence of test substance; FIG. 6
Description: The scavenging ability against lipid peroxy radicals (LOO·) was analyzed by the AA/LOX system using an NBD-Pen fluorescence probe in accordance with the method in “Nat Chem Biol 12:608-613, 2016.” Specifically, a mixture solution of 0.1% DMSO or 100 μM each of four different test substances (vitamin K1 [manufactured by FUJIFILM Wako Pure Chemical Corporation], vitamin K2 [menaquinone-4; manufactured by Sigma-Aldrich], menadione [manufactured by Sigma-Aldrich], or vitamin K3 hydroquinone [manufactured by Toronto Research Chemicals]) and PBS (pH 7.4) containing 500 μM arachidonic acid (manufactured by Sigma-Aldrich) and 1 mM dithiothreitol (DTT) was prepared and added to a 96-well plate, then 5 μM NBD-Pen fluorescence probe and 10 μg/mL LOX solution (manufactured by Sigma-Aldrich) were added, and the fluorescence level (excitation light, 470 nm; fluorescence wavelength, 530 nm) was measured using a microplate reader (Spectra Max M2e; manufactured by Molecular Devices) at 37° C. […] In the AA/LOX system using an NBD-Pen fluorescence probe, an oxidation reaction of AA by LOX produces a lipid peroxide (LOOH), a lipid peroxy radical (LOO·) is produced from the produced LOOH by Fenton reaction using an iron ion (Fe^2+) as a catalyst, and a scavenging ability against lipid peroxy radicals is detected using the level of NBD-Pen-derived fluorescence produced by a reaction of the produced lipid peroxy radical with NBD-Pen as an indicator.

[7] = tested on: AHI model mice; experiment: In vivo analysis using acute hepatic injury (AHI) model mice (LPS and D-GalN); parameters: species or system mouse; conditions: oral 20 mg/kg at 12 h and 2 h before LPS and D-GalN, vs AHI/solvent treatment group
Description: An AHI model mouse was prepared by administering lipopolysaccharide (LPS) and D-galactosamine (D-GalN). Specifically, eight to nine week-old wild-type male mice (C57BL/6N; manufactured by CLEA) were divided into three groups (the wild type group [n=4], the AHI/solvent treatment group [n=7], and the AHI/VK2 treatment group [n=8]). At 12 hours and two hours before administration of LPS and D-GalN, 0.5% methylcellulose solution (solvent) was orally administered at a dose of 20 mg/kg (body weight) to the AHI/solvent treatment group, and a methylcellulose solution containing vitamin K2 (menaquinone-4) was orally administered at a dose of 20 mg (vitamin K2)/kg (body weight) to the AHI/VK2 treatment group. For LPS and D-GalN administration, PBS containing LPS and D-GalN was injected into the peritoneal cavity at a dose of 5 μg (LPS)/kg (body weight) and 500 mg (D-GalN)/kg (body weight) to the two AHI groups (that is, the AHI/solvent treatment group and the AHI/VK2 treatment group) (refer to “Sci Rep 7:1884, 2017”). The mice were sacrificed at six hours after injection, and blood and liver tissue were collected. The plasma GPT levels were measured for the collected blood using Fuji Dri-chem Slide GPT/ALT-P III (manufactured by Fujifilm Medical). Further, the collected liver tissue was fixed in 10% neutral buffered formalin and embedded in paraffin. The paraffin-embedded liver tissue was sliced to prepare liver tissue sections and subjected to hematoxylin and eosin (HE) staining. Further, deparaffinization treatment was performed by heating the liver tissue sections in a 0.01 M citric acid buffer solution (pH 6.0) at 120° C. for five minutes to prepare deparaffinized liver tissue sections. Immunohistological staining of the deparaffinized liver tissue sections using an anti-HEL antibody (50-fold diluted; clone 5F12; manufactured by JaICA) was performed in accordance with a usual method using a streptavidin-biotin-alkaline phosphatase kit (Histofine SAB-AP [M] kit; manufactured by Nichirei Corporation) and Vector Red Substrate kit (manufactured by Vector Laboratories). Further, dead cells were detected by the TUNEL method using Apop Tag Peroxidase In Situ Apoptosis Detection Kit (manufactured by Merck Millipore).

SMILES	decrease in the cell viability level caused by ferroptosis inducer ([1]; 1 μM test substance)	NBD-Pen fluorescence signal level (scavenging of lipid peroxy radicals) [6]	decrease in the cell viability level caused by ferroptosis inducer ([2]; 10 μM test substance)	decrease in the cell viability level caused by ferroptosis inducer ([3]; 10 μM test substance)	decrease in the cell viability level caused by ferroptosis inducer ([4]; 10 μM test substance)	decrease in the cell viability level caused by ferroptosis inducer ([5]; 10 μM test substance)	cell viability level compared with ferroptosis inducer alone ([1]; 10 μM test substance)	decrease in the cell viability level caused by ferroptosis inducer ([1]; 10 μM test substance)	further results
CCOC(=O)c1ccc(NC2CCCCC2)c(N)c1 [ferrostatin 1]									cell viability level compared with ferroptosis inducer alone ([1]; 0.3 μM test substance): significantly increased; decrease in the cell viability level caused by ferroptosis inducer ([1]; 0.3 μM test substance): significantly suppressed
CC1=CC(=O)c2ccccc2C1=O [menadione, Menadione]	significantly suppressed	decreased							decrease in the cell viability level caused by ferroptosis inducer ([2]; 3 μM test substance): significantly suppressed; decrease in the cell viability level caused by ferroptosis inducer ([3]; 3 μM test substance): significantly suppressed; decrease in the cell viability level caused by ferroptosis inducer ([4]; 3 μM test substance): significantly suppressed; decrease in the cell viability level caused by ferroptosis inducer ([5]; 3 μM test substance): significantly suppressed; cell viability level compared with ferroptosis inducer alone ([1]; 3 μM test substance): significantly increased
CC1=C(C/C=C(\C)CCCC(C)CCCC(C)CCCC(C)C)C(=O)c2ccccc2C1=O (centres unmarked) [vitamin K1, Phylloquinone]		decreased	significantly suppressed	significantly suppressed	significantly suppressed	significantly suppressed	significantly increased	significantly suppressed	
CC(C)=CCCC(C)=CCCC(C)=CCC/C(C)=C/CC1=C(C)C(=O)c2ccccc2C1=O [vitamin K2, Menaquinone-4 (MK-4)]		decreased	significantly suppressed	significantly suppressed	significantly suppressed	significantly suppressed	significantly increased	significantly suppressed	HEL detection level in liver tissue (lipid peroxide marker) ([7]; FIG. 5A): substantially decreased; severe hemorrhage in the liver tissue (HE staining) ([7]; FIG. 5A): relieved; plasma GPT level ([7]; FIG. 5B): significantly decreased; proportion of dead cells in liver tissue (TUNEL method) ([7]; FIGS. 5A and 5C): significantly decreased
Cc1cc(O)c2ccccc2c1O [vitamin K3 hydroquinone, Menadiol]	significantly suppressed	decreased							
